Test results: patent US20050215548A1 (Cyclacel Limited, priority 2002, published 2005)
Like-named read-outs stand apart in the source and are kept apart here. Marks after values point to notes of the source that are not given here. Non-standard residues stand in square brackets, D forms with d. Residues, ends and D or L forms follow the SMILES beside them. Trp(6-Cl) = N[C@@H](Cc1c[nH]c2cc(Cl)ccc12)C(=O)O; Pmp = N[C@@H](Cc1ccc(CP(=O)(O)O)cc1)C(=O)O; Ac3c = NC1(C(=O)O)CC1; Aib = CC(C)(N)C(=O)O

What was measured:
[1] = biological target: T1, HDM2 (Homo sapiens, UniProt Q00987); assay: Fluorescence polarisation competitive HDM2 binding assay
T1 construct: Recombinant HDM2 (1.5 μg per well) in TBS-BSA buffer
Experimental: This was carried out using a 96-well microtiter plate (Costar) format. Recombinant HDM2 (1.5 μg per well) in TBS-BSA buffer (50 mM Tris pH 7.4, 150 mM NaCl, and 0.1% BSA) was incubated for 5 min at room temperature in the presence of serially diluted test compound (in TBS-BSA buffer with a final concentration of 5% DMSO). Fluorescently labelled p53-derived peptide (fluorescein-[…]NH2, 0.2 μM) was added to each well and the plate was incubated at room temperature for 45 min. The fluorescence polarisation (excitation 485 nm, emission 520 nm) of the peptide was measured. IC50 values were calculated from dose-response curves.
(§1) The fluorescence polarisation competitive HDM2 binding assay described in Example 3 was used. Furthermore, the anti-proliferative potency of the compounds against three human tumour cell lines with different genetic make-up was also determined. […] The cell lines used were as follows: AGS, gastric adenocarcinoma, wild-type p53; H1299, large cell lung carcinoma, p53 null, low HDM2; SJSA-1, primitive multipotential bone sarcoma, wild-type p53, overexpressed HDM2.

[2] = system: p53; assay: p53 reporter gene assay (U2OS-derived luciferase reporter cell line); conditions: for Fold induction of luciferase activity: compared to basal luciferase activity, 16-h time point, at concentration of maximal induction; for Concentration (test compound concentration at which the p53 induction was maximal): p53 reporter, U2OS-derived cell line
[3] = system: AGS; assay: 72-h MTT cytotoxicity assay, AGS; format: cell-based; conditions: Homo sapiens, 72-h MTT, Table 1, read-out: IC50 Anti-proliferative effect on cell line AGS
Experimental: as §1
(§2) Representative bisarylsulfonamide compounds were tested on a panel of transformed and non-transformed human cell lines, using a standard 72-h MTT cytotoxicity assay [Haselsberger K et al, ibid].

[4] = system: SJSA-1; assay: 72-h MTT cytotoxicity assay, SJSA-1; format: cell-based; conditions: Homo sapiens, SJSA-1; 72-h MTT; Table 1; read-out: IC50 Anti-proliferative effect on cell line SJSA-1
Experimental: as §1, §2

[5] = system: H1299; assay: 72-h MTT cytotoxicity assay, H1299; format: cell-based; conditions: Homo sapiens, NCI-H1299; 72-h MTT; Table 1; read-out: IC50 Anti-proliferative effect on cell line H 1299
Experimental: as §1, §2

[6] = fluorescence polarisation assay, Table 3, read-out: In vitro competitive HDM2 binding assay IC50
[7] = fluorescence polarisation format, Table 1, read-out: IC50 In vitro competitive HDM2 binding assay

T1 sequence (Q00987 whole entry): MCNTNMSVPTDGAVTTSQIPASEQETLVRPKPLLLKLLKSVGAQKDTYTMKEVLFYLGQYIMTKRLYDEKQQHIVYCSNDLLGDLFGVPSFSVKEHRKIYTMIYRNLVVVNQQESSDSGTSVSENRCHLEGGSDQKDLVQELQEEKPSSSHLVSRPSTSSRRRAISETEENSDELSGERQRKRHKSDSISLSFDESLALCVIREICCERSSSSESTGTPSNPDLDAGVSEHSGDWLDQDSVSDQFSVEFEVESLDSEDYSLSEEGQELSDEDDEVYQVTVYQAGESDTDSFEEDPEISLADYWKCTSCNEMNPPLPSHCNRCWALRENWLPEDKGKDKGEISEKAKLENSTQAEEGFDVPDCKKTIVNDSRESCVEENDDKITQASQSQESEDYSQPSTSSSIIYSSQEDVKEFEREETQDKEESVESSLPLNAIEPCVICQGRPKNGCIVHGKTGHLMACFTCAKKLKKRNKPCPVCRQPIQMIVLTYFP

Row | SMILES | IC50 [1, 7] [µM] | further results
1 | O=S(=O)(Nc1ccc(F)cc1)c1cc(Br)c(Cl)s1 [Compound 4, 4-Bromo-5-chlorothiophene-2-sulfonic acid (4-fluorophenyl)amide] | 378 | IC50 [1, 6]: 378 µM; Fold induction of luciferase activity [2]: <2 fold; Concentration (test compound concentration at which the p53 induction was maximal) [2]: 100^e μM
2 | O=S(=O)(Nc1ccc(C(F)(F)F)cc1)c1cc(S(=O)(=O)Nc2ccc(C(F)(F)F)cc2)c(Cl)s1 [Compound 33, 5-Chlorothiophene-2,4-disulfonic acid bis-[(4-trifluoro-methyl-phenyl)-amide]] | 65 ± 5 | IC50 [3]: 68 ± 1 µM; IC50 [4]: > 100 µM; IC50 [5]: 69 ± 1 µM
3 | O=[N+]([O-])c1cc(S(=O)(=O)Nc2ccc(C(F)(F)F)cc2)ccc1Cl [Compound 35, 4-Chloro-3-nitro-N-(4-trifluoromethylphenyl)benzenesulfonamide] | 192 ± 8 | IC50 [3]: 13 ± 3.3 µM; IC50 [4]: 26.5 ± 1.6 µM; IC50 [5]: 9.3 ± 1.7 µM
4 | CC(=O)Sc1sc(S(=O)(=O)Nc2ccc(Cl)cc2)cc1[N+](=O)[O-] [Compound 72, Thioacetic acid S-[5-(4-chloro-phenylsulfamoyl)-3-nitro-thiophen-2-yl] ester] | 16.2 | IC50 [3]: 61 µM
5 | Cc1sc(S(=O)(=O)Nc2ccc(Cl)cc2)cc1[N+](=O)[O-] [Compound 73, 5-Methyl-4-nitro-thiophene-2-sulfonic acid (4-chloro-phenyl)-amide] | > 167 | IC50 [3]: 53 µM; IC50 [5]: 66 µM
6 | COc1ccc(S(=O)(=O)Nc2cc(C(F)(F)F)cc(C(F)(F)F)c2)cc1Cl [Compound 104, N-(3,5-Bis-trifluoromethyl-phenyl)-3-chloro-4-methoxy-benzene-sulfonamide] | 151 ± 26 | IC50 [3]: 25 µM
7 | CC(=O)N1CCN(c2cc(S(=O)(=O)Nc3cc(C(F)(F)F)cc(C(F)(F)F)c3)ccc2[N+](=O)[O-])CC1 [Compound 106, 3-(4-Acetyl-piperazin-1-yl)-N-(3,5-bis-trifluoromethyl-phenyl)-4-nitro-benzenesulfonamide] | 241 ± 158 | 
8 | O=[N+]([O-])c1ccccc1S(=O)(=O)Nc1cc(C(F)(F)F)cc(C(F)(F)F)c1 [Compound 107, N-(3,5-Bis-trifluoromethyl-phenyl)-2-nitro-benzenesulfonamide] | 401 ± 46 | 
9 | O=C(O)c1cccc(S(=O)(=O)Nc2cc(C(F)(F)F)cc(C(F)(F)F)c2)c1 [Compound 108, 3-(3,5-Bis-trifluoromethyl-phenylsulfamoyl)-benzoic acid] | 451 ± 118 | 
10 | O=S(=O)(NCc1ccc(Cl)cc1)c1cc(Cl)c(O)c(Cl)c1 [Compound 109, 3,5-Dichloro-N-(4-chloro-benzyl)-4-hydroxy-benzenesulfonamide] | 375 ± 41 | 
11 | O=S(=O)(NCc1ccc(C(F)(F)F)cc1)c1cc(Cl)c(O)c(Cl)c1 [Compound 110, 3,5-Dichloro-4-hydroxy-N-(4-trifluoromethyl-benzyl)-benzenesulfonamide] | 242 | 
12 | O=S(=O)(NCCc1c[nH]c2ccccc12)c1cc(Cl)c(O)c(Cl)c1 [Compound 111, 3,5-Dichloro-4-hydroxy-N-[2-(1H-indol-3-yl)-ethyl]-benzenesulfonamide] | 448 | 
13 | O=S(=O)(Nc1cc(Cl)cc(Cl)c1)c1cc(Br)c(Br)s1 [Compound 112, 4,5-Dibromo-thiophene-2-sulfonic acid (3,5-dichloro-phenyl)-amide] | 194 | 
14 | O=S(=O)(Nc1cc(Cl)cc(Cl)c1)c1ccc(-c2ncco2)cc1 [Compound 113, N-(3,5-Dichloro-phenyl)-4-oxazol-2-yl-benzenesulfonamide] | 246 | 
15 | O=S(=O)(Nc1cc(C(F)(F)F)cc(C(F)(F)F)c1)c1cc(Br)c(Cl)s1 [Compound 114, 4-Bromo-5-chloro-thiophene-2-sulfonic acid (3,5-bis-trifluoromethyl-phenyl)-amide] | 293 | 
16 | O=S(=O)(Nc1cc(Cl)cc(Cl)c1)c1cc(Br)c(Cl)s1 [Compound 115, 4-Bromo-5-chloro-thiophene-2-sulfonic acid (3,5-dichloro-phenyl)-amide] | 431 | 
17 | O=S(=O)(Nc1ccc(C(F)(F)F)cc1)c1ccc(Br)s1 [Compound 116, 5-Bromo-thiophene-2-sulfonic acid (4-trifluoromethyl-phenyl)-amide] | 152 | 

Row | SMILES | IC50 [1, 7] [µM] | further results
18 | O=S(=O)(Nc1cc(C(F)(F)F)cc(C(F)(F)F)c1)c1ccc(S(=O)(=O)c2ccccc2)s1 [Compound 117, 5-Benzenesulfonyl-thiophene-2-sulfonic acid (3,5-bis-trifluoromethyl-phenyl)-amide] | 147 | 
19 | O=S(=O)(Nc1ccc(Cl)cc1Cl)c1ccc(S(=O)(=O)c2ccccc2)s1 [Compound 118, 5-Benzenesulfonyl-thiophene-2-sulfonic acid (2,4-dichloro-phenyl)-amide] | 305 | 
20 | Cc1c(S(=O)(=O)Nc2cc(C(F)(F)F)cc(C(F)(F)F)c2)sc2ccc(Cl)cc12 [Compound 119, 5-Chloro-3-methyl-benzo[b]thiophene-2-sulfonic acid (3,5-bis-trifluoromethyl-phenyl)-amide] | 106 ± 13 | 
21 | O=S(=O)(Nc1cc(C(F)(F)F)cc(C(F)(F)F)c1)c1cc2ccccc2s1 [Compound 120, Benzo[b]thiophene-2-sulfonic acid (3,5-bis-trifluoromethyl-phenyl)-amide] | 193 ± 12 | 
22 | O=S(=O)(Nc1ccc(Cl)cc1)c1ccc2nsnc2c1 [Compound 121, Benzo[1,2,5]thiadiazole-5-sulfonic acid (4-chloro-phenyl)-amide] | 314 ± 29 | 
23 | O=S(=O)(Nc1cc(C(F)(F)F)cc(C(F)(F)F)c1)c1ccc2nsnc2c1 [Compound 122, Benzo[1,2,5]thiadiazole-5-sulfonic acid (3,5-bis-trifluoromethyl-phenyl)-amide] | 165 ± 8 | 
24 | O=S(=O)(Nc1ccc(C(F)(F)F)cc1)c1ccc2nsnc2c1 [Compound 123, Benzo[1,2,5]thiadiazole-5-sulfonic acid (4-trifluoromethyl-phenyl)-amide] | 329 ± 42 | 
25 | O=S(=O)(Nc1cc(C(F)(F)F)cc(C(F)(F)F)c1)c1ccc(-c2ccccn2)s1 [Compound 124, 5-Pyridin-2-yl-thiophene-2-sulfonic acid (3,5-bis-trifluoromethyl-phenyl)-amide] | 265 ± 64 | 
26 | O=S(=O)(Nc1ccc(Cl)cc1)c1cc(Br)c(Br)s1 [Compound 125, 4,5-Dibromo-thiophene-2-sulfonic acid (4-chloro-phenyl)-amide] | 198 ± 17 | 
27 | O=S(=O)(Nc1ccc(C(F)(F)F)cc1)c1cc(Br)c(Br)s1 [Compound 126, 4,5-Dibromo-thiophene-2-sulfonic acid (4-trifluoromethyl-phenyl)-amide] | 163 ± 27 | 
28 | O=S(=O)(NCc1ccc(F)cc1)c1cc(Cl)c(O)c(Cl)c1 [Compound 127, 3,5-Dichloro-N-(4-fluoro-benzyl)-4-hydroxy-benzenesulfonamide] | 325 ± 24 | 
29 | O=S(=O)(Nc1cc(C(F)(F)F)cc(C(F)(F)F)c1)c1c(Cl)cccc1Cl [Compound 128, N-(3,5-Bis-trifluoromethyl-phenyl)-2,6-dichloro-benzenesulfonamide] | 134 ± 28 | IC50 [3]: 53 µM
30 | COc1ccc(NS(=O)(=O)c2cc([N+](=O)[O-])c(Cl)s2)c(C)c1 [Compound 129, 5-Chloro-4-nitro-thiophene-2-sulfonic acid (4-methoxy-2-methyl-phenyl)-amide] | 278 ± 19 | IC50 [1, 6]: 278 ± 19 µM; Fold induction of luciferase activity [2]: 5 fold; Concentration (test compound concentration at which the p53 induction was maximal) [2]: 100 µM
31 | O=[N+]([O-])c1cc(S(=O)(=O)Nc2ccc(Cl)cc2)sc1N1CCCC(O)C1 (stereo not shown) [Compound 130, 5-(3-Hydroxy-piperidin-1-yl)-4-nitro-thiophene-2-sulfonic acid (4-chloro-phenyl)-amide] | 64 ± 1 | 
32 | O=[N+]([O-])c1ccc(NS(=O)(=O)c2cc([N+](=O)[O-])c(Cl)s2)cc1 [Compound 131, 5-Chloro-4-nitro-thiophene-2-sulfonic acid (4-nitro-phenyl)-amide] | 41 ± 4 | 
33 | CSCC[C@H](NC(=O)[C@@H](N)Cc1ccccc1)C(=O)NC(C)(C)C(=O)N[C@@H](Cc1ccc(CP(=O)(O)O)cc1)C(=O)N[C@@H](Cc1c[nH]c2cc(Cl)ccc12)C(=O)N[C@@H](CCC(=O)O)C(=O)NC1(C(=O)N[C@@H](CC(C)C)C(N)=O)CC1 [Control, H-Phe-Met-Aib-Pmp-(6-Cl-Trp)-Glu-Ac3c-Leu-NH2, reference compound] (H-FM[Aib][Pmp][Trp(6-Cl)]E[Ac3c]L-NH2) |  | IC50 ([1]; In vitro competitive HDM2 binding assay IC50, fluorescence polarisation assay, Table 3): 0.19 µM; Fold induction of luciferase activity [2]: 4 fold; Concentration (test compound concentration at which the p53 induction was maximal) [2]: 150 to 200 µM
